Data on six compounds can be found in patent US7842672B2, “Phosphonate inhibitors of HCV” (Gilead Sciences, Inc., priority 2006, dated 2010).

As a reminder, the inhibition is the percentage by which the read-out fell short of the control. A higher inhibition goes with a strong effect.

Assay [1] has as its system HCV replicon cells (Huh7). Briefly: HCV replicon assay (HCV EC50 determination, luciferase readout). The assay is classed as cell-based. Conditions: for inhibition at 250 µM: Concentration tested 250 micromolar. The procedure: Replicon cells were seeded in 96-well plates at a density of 8×10^3 cells per well in 100 μL of culture medium, excluding Geneticin. Compound was serially diluted in 100% DMSO and then added to the cells at a 1:200 dilution, achieving a final concentration of 0.5% DMSO and a total volume of 200 μL. Plates were incubated at 37° C. for 3 days, after which culture medium was removed and cells were lysed in lysis buffer provided by Promega's luciferase assay system. Following the manufacturer's instruction, 100 μL of luciferase substrate was added to the lysed cells and luciferase activity was measured in a TopCount luminometer.
A general note: In antiviral work, replicon cells carry a viral genome segment that copies itself.

For assay [2], the target named is HCV NS5b polymerase (Hepatitis C virus genotype 1b, UniProt Q9WMX2). Briefly: NS5b polymerase assay (HCV IC50 determination). The assay is classed as biochemical. Conditions: Concentration tested 200 micromolar. The procedure:
Assay Protocol: NS5b polymerase assay (40 μL) was assembled by adding 28 μL polymerase mixture (final concentration: 50 mM Tris-HCl at pH 7.5, 10 mM KCL, 5 mM MgCl2, 1 mM DTT, 10 mM EDTA, 4 ng/μL of RNA template, and 75 nM HCV ? 21 NS5b polymerase) to assay plates followed by 4 μL of compound dilution. The polymerase and compound were pre-incubated at 35° C. for 10 minute before the addition of 8 μL of nucleotide substrate mixture (33P- ? -labeled competing nucleotide at KM and 0.5 mM of the remaining three nucleotides). The assay plates were covered and incubated at 35° C. for 90 min. Reactions were then filtered through 96-well DEAE-81 filter plates via vacuum. The filter plates were then washed under vacuum with multiple volumes of 0.125 M NaHPO4, water, and ethanol to remove unincorporated label. Plates were then counted on TopCount to assess the level of product synthesis over background controls. The IC50 value was determined using Prism fitting program.

Compound `C[C@]1(OCP(=O)(O)O)O[C@@H](n2ccc(=O)[nH]c2=O)[C@H](O)[C@@H]1O` [Compound 32.4, ((2R,3S,4R,5R)-5-(2,4-dioxo-3,4-dihydropyrimidin-1(2H)-yl)-3,4-dihydroxy-2-methyl-tetrahydrofuran-2-yloxy)methylphosphonic acid] displayed an inhibition at 250 µM in assay [1] (Hepatitis C virus, Huh-7) of 14.8%.

Regarding `CCCCOC(=O)[C@H](C)NP(=O)(CO[C@H]1O[C@@H](n2ccc(N)cc2=O)[C@H](O)[C@@H]1O)N[C@@H](C)C(=O)OCCCC` [Compound 32.5], in assay [1] (Concentration tested 500 micromolar), the “% Inhibition of replicon” value is 37.5%.

Take `NC(=O)c1ncn(C2OC(OCP(=O)(O)O)CC2O)n1` (stereo not drawn) [Compound 8.3, [5-(3-Carbamoyl-[1,2,4]triazol-1-yl)-4-hydroxy-tetrahydro-furan-2-yloxymethyl]-phosphonic acid]: at 250 µM the inhibition in assay [1] (Hepatitis C virus, Huh-7) was 18.5%.

In assay [1] (Hepatitis C virus, Huh-7, Concentration tested 50 micromolar), `CCCCOC(=O)[C@H](C)NP(=O)(CO[C@@H]1C[C@@H](O)[C@H](n2cnc(C(N)=O)n2)O1)N[C@@H](C)C(=O)OCCCC` [Compound 9.5, Bis (Alanine-n-butyl ester) phosphonamidate pro drug of [5-(3-carbamoyl-[1,2,4]triazol-1-yl)-4-hydroxy-tetrahydro-furan-2-yloxymethyl]-phosphonic acid] displayed an inhibition at 50 µM of 1.1%.

In assay [1] (Hepatitis C virus, Huh-7), `Nc1nc2c(ncn2C2OC(OCP(=O)(O)O)CC2O)c(=O)[nH]1` (stereo not drawn) [Compound 5.2, [5-(2-Amino-6-oxo-1,6-dihydro-purin-9-yl)-4-hydroxy-tetrahydro-furan-2-yloxymethyl]-phosphonic acid] came in with an inhibition at 250 µM of 27.2%.

Turning to `NC(=O)c1ncn([C@@H]2O[C@H](OCP(=O)(O)OP(=O)(O)OP(=O)(O)O)C[C@H]2O)n1` [Compound 9.4, Diphosphate of [5-(3-Carbamoyl-[1,2,4]triazol-1-yl)-4-hydroxy-tetrahydro-furan-2-yloxymethyl]-phosphonic acid], in assay [2], 200 µM produced 65.5% inhibition.
